Laboratory results published in patent EP1038880B1, “Androstanes and pregnanes for allosteric modulation of GABA receptor” (priority 1994, dated 1995).

Key:
[1] = tested on: mice; test: Loss-of-righting reflex (anesthetic activity); assay type: in vivo; details: iv
Procedure: The compounds of and used in the invention can also be used for anesthetic indications at high doses. However, the preferred route of administration to induce anesthesia is intravenous (i.v.) administration. In animals, a drug's anesthetic properties is measured by the drug's ability to produce a loss-of-righting reflex. The loss-of-righting reflex is defined as the inability of an animal to right itself within […] on its back. Mice were administered drug i.v. in the lateral tail vein. Following administration, mice were placed on their backs and observed for loss-of-righting reflex. Table 12. Anesthetic Activity of Neuroactive Steroids in Mice

[2] = molecular target: T1, Glucocorticoid Receptors (Rattus norvegicus, UniProt P06536); test: Inhibition of 3H-dexamethasone binding, brain cytosol; parameters: species or system rats; dose or concentration left out as unconfirmed; details: read-out: % of Inhibition
T1 construct: from tissue; host or cells: rat brain cytosol
T1 sequence (P06536 1-795): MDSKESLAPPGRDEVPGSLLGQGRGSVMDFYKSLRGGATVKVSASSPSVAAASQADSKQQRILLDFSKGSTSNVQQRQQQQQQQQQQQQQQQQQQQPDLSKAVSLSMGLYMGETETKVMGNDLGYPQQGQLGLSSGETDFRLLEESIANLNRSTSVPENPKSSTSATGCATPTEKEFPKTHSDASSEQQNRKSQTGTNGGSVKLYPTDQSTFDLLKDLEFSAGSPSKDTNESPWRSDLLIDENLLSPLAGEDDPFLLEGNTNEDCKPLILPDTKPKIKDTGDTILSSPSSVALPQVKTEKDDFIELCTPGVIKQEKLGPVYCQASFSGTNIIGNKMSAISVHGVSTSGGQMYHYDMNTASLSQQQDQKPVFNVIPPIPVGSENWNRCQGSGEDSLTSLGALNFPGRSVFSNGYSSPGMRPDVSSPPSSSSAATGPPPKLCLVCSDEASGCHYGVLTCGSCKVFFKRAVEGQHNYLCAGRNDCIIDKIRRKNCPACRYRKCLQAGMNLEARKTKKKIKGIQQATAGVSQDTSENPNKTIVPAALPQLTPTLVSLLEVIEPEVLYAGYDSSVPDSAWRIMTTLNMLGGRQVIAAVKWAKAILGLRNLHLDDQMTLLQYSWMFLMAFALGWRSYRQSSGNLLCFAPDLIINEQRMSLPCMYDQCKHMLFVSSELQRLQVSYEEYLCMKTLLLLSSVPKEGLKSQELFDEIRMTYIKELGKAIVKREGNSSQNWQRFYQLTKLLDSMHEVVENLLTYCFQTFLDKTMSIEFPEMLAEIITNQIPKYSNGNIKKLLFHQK
Procedure: (§1) Various hormonal activities of representative neuroactive steroids were further studied through testing their potential estrogenic, mineralocorticoid and glucocorticoid activities. These activities were analyzed by monitoring the ability of the compounds to inhibit binding of the steroid hormones to their respective hormone receptors.
For Table 4, brain cytosol fractions were prepared as for Table 3, and the compounds were incubated with 3 nM of ^3H-dexamethasone (the specific ligand for the glucocorticoid receptor).

[3] = tested on: tonic seizure; test: Maximal electroshock test; assay type: in vivo; details: Mus musculus, ip, steroids i.p., mice
Procedure: (§2) The anticonvulsant tests are similar to that described above. […] The number of animals with tonic and/or clonic convulsions was recorded. In the maximal electroshock test, 50 mA of current at 60 Hz was delivered through corneal electrodes for 200 msec to induce tonic seizure. The ability of compounds to abolish the tonic component was defined as the endpoint. General CNS depression potential was determined by a rotorod test 10 minutes after the injection of compounds where the number of mice staying on a rotating (6 rpm) rod for 1 minute in one of the three trials was determined. […] Table 7. Anticonvulsant Activity of Exemplified Neuroactive Steroids and those of Selected Clinically Useful Anticonvulsants in Mice

[4] = molecular target: T2, Hippocampal Mineralocorticoid Receptors (Rattus norvegicus, UniProt P22199); test: Inhibition of 3H-aldosterone binding, brain cytosol; parameters: species or system rats; details: competitor 10^-6M; 3 nM 3H-aldosterone, RU28362 0.5 µM
T2 construct: To isolate the mineralocorticoid receptor, brain cytosol fractions were prepared; from tissue; host or cells: rat brain (hippocampal) cytosol
T2 sequence (P22199 1-981): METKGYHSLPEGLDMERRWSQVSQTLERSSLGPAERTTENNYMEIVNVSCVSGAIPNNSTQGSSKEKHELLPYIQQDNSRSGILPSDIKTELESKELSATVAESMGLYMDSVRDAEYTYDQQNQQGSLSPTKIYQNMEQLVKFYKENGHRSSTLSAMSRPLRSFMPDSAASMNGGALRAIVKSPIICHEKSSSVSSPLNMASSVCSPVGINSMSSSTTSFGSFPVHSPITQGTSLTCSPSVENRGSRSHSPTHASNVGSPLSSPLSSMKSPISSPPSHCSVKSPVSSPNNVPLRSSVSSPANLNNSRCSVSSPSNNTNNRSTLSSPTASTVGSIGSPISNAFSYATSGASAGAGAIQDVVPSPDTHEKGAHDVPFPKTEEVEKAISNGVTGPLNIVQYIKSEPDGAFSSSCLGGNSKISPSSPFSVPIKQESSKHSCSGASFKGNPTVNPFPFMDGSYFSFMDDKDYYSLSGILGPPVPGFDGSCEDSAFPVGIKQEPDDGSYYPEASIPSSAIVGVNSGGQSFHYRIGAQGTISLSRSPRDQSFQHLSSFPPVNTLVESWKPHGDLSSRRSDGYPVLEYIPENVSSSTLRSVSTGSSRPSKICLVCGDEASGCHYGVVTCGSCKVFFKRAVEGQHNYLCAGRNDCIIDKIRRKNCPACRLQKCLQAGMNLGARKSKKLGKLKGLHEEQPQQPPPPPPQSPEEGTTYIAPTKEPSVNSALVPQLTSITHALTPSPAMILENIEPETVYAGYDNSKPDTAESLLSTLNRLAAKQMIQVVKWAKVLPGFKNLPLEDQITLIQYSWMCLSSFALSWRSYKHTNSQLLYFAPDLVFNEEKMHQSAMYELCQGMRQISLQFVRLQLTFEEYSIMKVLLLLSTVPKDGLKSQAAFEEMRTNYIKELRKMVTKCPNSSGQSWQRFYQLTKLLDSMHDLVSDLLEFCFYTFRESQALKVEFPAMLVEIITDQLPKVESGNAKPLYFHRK
Procedure: as §1
In Table 3, rats were adrenalectomized 3 days prior to sacrifice. […] Table 2. Inhibition of 3H-Progesterone Binding to the Bovine Uteral Progesterone Receptors
Table 3. Inhibition of 3H-Aldosterone Binding to Hippocampal Mineralocorticoid Receptors

[5] = tested on: metrazol induced convulsions; test: animal or person; assay type: in vivo, mice; details: Mus musculus; metrazol 85 mg/kg s.c., steroids i.p., mice
[6] = tested on: (+)bicuculline; test: Anticonvulsant test against (+)bicuculline; assay type: in vivo, mice; details: Mus musculus, read-out: ED50 BIC
Procedure: as §2

[7] = tested on: picrotoxin; test: Anticonvulsant test against picrotoxin; assay type: in vivo, mice; details: Mus musculus, read-out: ED50 PICRO
Procedure: as §2

[8] = tested on: strychnine; test: Anticonvulsant test against strychnine; assay type: in vivo, mice; details: Mus musculus, read-out: ED50 STR
Procedure: as §2

[9] = tested on: Bovine Uteral Progesterone Receptors; test: Inhibition of 3H-progesterone binding, uterus cytosol; details: competitor 10^-6M; 3H-progesterone 0.15 nM
Procedure: The data presented were obtained by performing assays in accordance with the procedures described in et al. 1988 previously to determine the effect of progesterone metabolites and their derivatives and the progestin R5020 on the binding of [^3H]R5020 to the progesterone receptor in rat uterus (Gee et al. 1988).
^3H-progesterone (0.15 nM) was incubated with the rat uterus cytosol in the presence of the test compounds. The specific binding were determined after incubation and compared to the control incubation without the compounds. The data are expressed as percent inhibition of binding.
In Table 3, rats were adrenalectomized 3 days prior to sacrifice. To isolate the mineralocorticoid receptor, brain cytosol fractions were prepared as describe in Gee, et al. 1988. The drugs were incubated with 3 nM of ^3H-aldosterone (the specific ligand for the mineralocorticoid receptor) in the presence of the selective type II agonist RU28362 (0.5 µM) which blocks ^3H-aldosterone binding to the type II (glucocorticoid) receptors. Table 2. Inhibition of 3H-Progesterone Binding to the Bovine Uteral Progesterone Receptors

[10] = tested on: N.I.H. Swiss-Webster mice; test: Light/dark transition test; assay type: in vivo; details: IP, 10 min test, vs control, Dunnett's t-test (Fig. 8)
Procedure: Male N.I.H. Swiss-Webster mice (Harlan, Harlan, Indianapolis, IN) weighing 15-20 g were housed four per cage in polyethylene cages with sawdust bedding. The colony room was environmentally controlled (22°C) with a hr light/dark cycle (0600-1800hr). Food and water were available ad libitum, except during testing. The experiments were run from 0700-1500 hr and groups were counterbalanced for time of day effects. Mice were only administered drug or vehicle once.
The apparatus included two 2-compartment automated test chambers (Model RXYZCM16, Omnitech Electronics, Columbus, OH). The open compartment was connected to the enclosed compartment via a 7.5 × 7.5 cm passageway. The open compartment was brightly lit using a 200 W incandescent light bulb. The experimental room was kept dark. Interruptions of the infrared beams in either chamber were automatically recorded by being linked to a computer through a Digiscan Analyzer (Omnitech and the data was analyzed using the Integrated Lab Animal Monitoring System (Omnitech Electronics). N.IH. Swiss-Webster mice were administered vehicle or test drug intraperiotoneally (IP),10 min later they were placed in the center of the lit compartment. The number of transitions between the lit and dark chambers, total activity in the lit chamber and the time spent in the lit chamber were measured during a 10 min test period.

[11] = tested on: Sprague-Dawley rats; test: Geller-Seifter conflict test; assay type: in vivo
Excerpt: This animal model of human anxiety utilizes a conditioned state of conflict in rats to ascertain the anxiolytic properties of drugs. […] The first includes bar pressing under a variable […] schedule without punishment. The second component is a fixed ratio schedule with each bar press resulting in a positive reinforcement and a punishment. The punished component produces a state of conflict within the animal. […] An anxiolytic response would increase the punished responding without affecting the unpunished responding.
Rats were housed individually under a 12-hour light-dark cycle with lights on from 0700-1900.
Rats were trained in test chambers (Coulbourn instruments) with a lever mounted in one wall, a small dipper that delivered the 0.1-mL milk reward (1 part Eagle condensed : milk 2 parts water), and a metal grid floor through which the foot-shock punishment was administered. A DEC PDP 11/73 minicomputer nmning SKED (State Systems) was used for programming and recording.
Rates initially learned to respond on a continuous reinforcement schedule and progressed rapidly to 30-sec, 1-min, and 2-min variable interval (VI) schedules. On the continuous reinforcement schedule, rats received milk reward following every lever press; on the VI schedules, milk rewards were available at infrequent and variable intervals, eventually at an average of once every 2 min. […] During conflict periods, which were signalled by the presentation of a light and a tone, the continuous reinforcement schedule was again in force and each lever press delivered both a milk reward and a brief ([…]) foot-shock Shock intensity was 0.2 mA initially, and.was increased daily in increments of 0.02 mA in order to gradually suppress lever pressing to 5 responses or less per conflict period. […] Drug-induced increases in the rate of punished responses were taken as an index of antianxiety activity, while decreases in the rate of unpunished responses were taken as an index of response depression or sedation.

[12] = tested on: mice; details: data from Swinyard & Woodhead 1982; cited from earlier work
[13] = tested on: tonic seizure; details: data from Swinyard & Woodhead 1982; cited from earlier work
[14] = tested on: picrotoxin; details: data from Swinyard & Woodhead 1982; cited from earlier work
[15] = tested on: metrazol induced convulsions; details: data from Swinyard & Woodhead 1982; cited from earlier work
[16] = tested on: (+)bicuculline; details: data from Swinyard & Woodhead 1982; cited from earlier work
[17] = molecular target: GR complex; test: [35S]TBPS binding assay (inhibition of [35S]TBPS binding, cerebral cortex P2 homogenate); parameters: species or system rat
Outline: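 Rat (male Sprague-Dawley) cortical P2 homogenate (0.5 mg protein) in 50 mM Na/K phosphate pH 7.4, 200 mM NaCl, incubated with 2 nM [35S]TBPS plus steroid test compounds (DMSO) in presence of GABA plus (+)bicuculline, 25°C, 90 min. Filtration, scintillation counting; nonspecific binding defined with […].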

CC(=O)[C@H]1CC[C@H]2[C@@H]3CC[C@H]4C[C@H](O)CC[C@]4(C)C3=CC[C@]12C [3α-Hydroxy-5α-pregn-9-en-20-one]
Loss-of-Righting Reflex ([1]; 10 mg/kg): 100

CO/C=C1/CC[C@H]2[C@@H]3CC[C@H]4C[C@H](O)CC[C@@H]4[C@H]3CC[C@]12C [3α-Hydroxy-17(Z)-methoxymethylene-19-nor-5α-androstane]
Loss-of-Righting Reflex ([1]; 5 mg/kg): 75

CC(=O)[C@H]1CC[C@H]2[C@@H]3CC[C@H]4C[C@](C)(O)CC[C@]4(C)[C@H]3CC[C@]12C [3α-hydroxy-3β-methyl-5α-pregnan-20-one]
inhibition [2]: 0.6% | ED50 [3]: > 100 mg/kg | inhibition at 1 µM [4]: 3.2% | ED50 [5]: 6.3 mg/kg | ED50 [6]: 61.9 mg/kg | ED50 [7]: 35.4 mg/kg | ED50 [8]: > 100 mg/kg | % of Inhibition [9]: 4%

CC(=O)[C@H]1CC[C@H]2[C@@H]3CC[C@@H]4C[C@@](O)(C#CCl)CC[C@]4(C)[C@H]3CC[C@]12C [3β-(Chloroethynyl)-3α-hydroxy-5β-pregnan-20-one]
Loss-of-Righting Reflex ([1]; 20 mg/kg): 100

CC(C)(O)[C@H]1CC[C@H]2[C@@H]3CC[C@H]4C[C@H](O)CC[C@]4(C)[C@H]3CC[C@]12C [5α-pregnan-20-dimethyl-3α,20-diol]
inhibition [2]: 2.6% | inhibition at 1 µM [4]: 0% | % of Inhibition [9]: 0%

C[C@]12CC[C@@H](O)C[C@H]1CC[C@@H]1[C@@H]2CC[C@]2(C)[C@@H](C(=O)CO)CC[C@@H]12 [5β-pregnan-3α,21-diol-20-one]
inhibition [2]: 8.2% | inhibition at 1 µM [4]: 13.8% | % of Inhibition [9]: 6%

CC(=O)[C@H]1CC[C@H]2[C@@H]3CC[C@@H]4C[C@H](O)CC[C@]4(C)[C@H]3CC[C@]12C [5β-pregnan-3α-ol-20-one, 3α-OH-5β-pregnan-20-one]
number of transitions between the dark box and the light box, in words [10]: significantly increased | % of Inhibition [9]: 9%

CC(=O)C1CCC2C3CCC4CC(O)(C(F)(F)F)CCC4(C)C3C(N(C)C)CC12C (stereo not drawn) [11α-N,N-Dimethylamino-3α-hydroxy-3β-trifluoromethyl-5β pregnan-20-one]
Geller/ Seifter (% of control) ([11]; IP, citrate, 20 mg/kg): 145 % of control

O=C1CN=C(c2ccccc2Cl)c2cc([N+](=O)[O-])ccc2N1 [Clonazepam]
ED50 RR [12]: 0.184 mg/kg | ED50 MES [13]: 93 mg/kg | ED50 PICRO [14]: 0.043 mg/kg | ED50 MTZ [15]: 0.009 mg/kg | ED50 BIC [16]: 0.0086 mg/kg

CCC1(c2ccccc2)C(=O)NC(=O)NC1=O [Phenobarbital]
ED50 RR [12]: 69 mg/kg

COCC1(O)CCC2(C)C(CCC3C2CCC2(C)C(C(=O)CSS(=O)(=O)[O-])CCC32)C1.[Na+] (stereo not drawn) [sodium S-(3α-hydroxy-3β-methoxymethyl-5α-pregnan-20-on-21-yl) thiosulfate]
IC50 ([17]; 2 nM [35S]TBPS, rat cerebral cortex P2 homogenate): 132 nM | IMAX ([17]; maximum inhibition of [35S]TBPS binding): 103% | Geller/ Seifter (% of control) ([11]; PO, water, 32 mg/kg): 4487.5 % of control
